One experiment deals with full-length human RORγt (Homo sapiens (Human), UniProt P51449). Briefly: RORγt (full-length human) reporter assay, conditions A or B. The class given is cell-based. Particulars: for IC50: HEK293T cells, read-out: RORγt (FL) Reporter Assay A or B, IC50; for inhibition at 6 µM: read-out: RORγt (FL) Reporter Assay A or B, % inhibition @ 6 μM, 6 μM compound concentration; for inhibition at 2 µM: 2 μM compound concentration (**). An excerpt:
RORγt (Full-Length Human) Reporter Assay:
Cells used in this assay were transiently co-transfected with three different plasmids, one expressing the GAL4-DNA binding domain (DBD)-RORγt fusion protein under control of a CMV promoter (NH2-Gal4-DBD:RORC—COOH in pCMV-BD, Stratagene #211342), and two reporter plasmids—the firefly luciferase reporter under control of a GAL4 promoter (pFR-Luc 2×GAL4) and Renilla luciferase reporter under control of CMV promoter (pRL-CMV, Promega #E2261). […] HEK293T cells were plated at 35,000 per well in 96-well plate in medium of DMEM with 10% FBS. After 18-22 hours incubation, the transfection was carried out by using a PEI solution with 170.5 ng total DNA/well (50 ng pCMV-BD-ROR plus 20 ng of pFR-Luc reporter and 0.5 ng of pRL-CMV reporter plus 100 ng Carrier DNA (Clontech #630440) for each well). 4-6 hours after transfection, cells were treated with compounds for overnight in the medium with final concentration of FBS 1.3% and DMSO 0.1%. After overnight (16 to 20 hours) incubation, media were removed and cells were lysed with […] Glo Lysis Buffer (Promega) for 10-15 minutes followed by 10 minute incubation with 50 μL Dual Glo reagent (Promega) at room temperature. Firefly luciferase luminescence was measured using a BMG Pherastar plate reader. To each well, 50 μL Stop and Glo reagent was added and incubated for 10 minutes at room temperature. Renilla luminescence was measured using a BMG Pherastar plate reader. To calculate the effect of compounds on RORγt activity, firefly values were normalized against values of DMSO only and values of reference compound at saturating concentration, then further normalized against Renilla signals. IC50s were generated by plotting final Renilla normalized data against compound concentration and percent inhibition was calculated against DMSO control.
Cells used in this assay were transiently co-transfected with three different plasmids, one expressing the GAL4-DNA binding domain (DBD)-RORγt fusion protein under control of a CMV promoter (NH2-Gal4-DBD:RORC—COOH in pCMV-BD, Stratagene #211342), and two reporter plasmids—the firefly luciferase reporter under control of a GAL4 promoter (pFR-Luc 2×GAL4) and Renilla luciferase reporter under control of CMV promoter (pRL-CMV, Promega #E2261). […] HEK293T cells were plated at 8750 cells per well in 384-well plate in medium of DMEM with 10% FBS. After 18-22 hours incubation, the transfection was carried out by using a PEI solution with 42.6 ng total DNA/well (12.5 ng pCMV-BD-ROR plus 5 ng of pFR-Luc reporter and 0.125 ng of pRL-CMV reporter plus 25 ng Carrier DNA (Clontech #630440) for each well). 4-6 hours after transfection, cells were treated with compounds for overnight in the medium with final concentration of FBS 1.3% and DMSO 0.1%. After overnight (16 to 20 hours) incubation, media were removed and cells were lysed with 20 μL Glo Lysis Buffer (Promega) for 10-15 minutes followed by 10 minute incubation with 20 μL Dual Glo reagent (Promega) at room temperature. Firefly luciferase luminescence was measured using a BMG Pherastar plate reader. To each well, 20 μL Stop and Glo reagent was added and incubated for 10 minutes at room temperature. Renilla luminescence was measured using a BMG Pherastar plate reader. To calculate the effect of compounds on RORγt activity, firefly values were normalized against values of DMSO only and values of reference compound at saturating concentration, then further normalized against Renilla signals. IC50s were generated by plotting final Renilla normalized data against compound concentration and percent inhibition was calculated against DMSO control.
For orientation: Reporter assays use an easily measured gene product as a stand-in for the process of interest.

Experiment [1] addresses human RORγt ligand binding domain (RORγt LBD) (Homo sapiens (Human), UniProt P51449). Kind of experiment: RORγt ThermoFluor assay. The text has this:
ThermoFluor® is a fluorescence based assay that estimates ligand binding affinities by measuring the effect of a ligand on protein thermal stability (Pantoliano, M. W., Petrella, E. C., Kwasnoski, J. D., Lobanov, V. S., Myslik, J., Graf, E., Carver, T., Asel, E., Springer, B. A., Lane, P., and Salemme, F. R. (2001) High-density miniaturized thermal shift assays as a general strategy for drug discovery. J Biomol Screen 6, 429-40, and Matulis, D., Kranz, J. K., Salemme, F. R., and Todd, M. J. (2005) Thermodynamic stability of carbonic anhydrase: measurements of binding affinity and stoichiometry using ThermoFluor. Biochemistry 44, 5258-66). This approach is applicable to a wide variety of systems, and rigorous in theoretical interpretation through quantitation of equilibrium binding constants (KD).
The shift in the melting point described as a ΔTm is proportional to the concentration and affinity of the ligand.
RORγt ThermoFluor® Assay Construct
Nucleotides 850-1635 (SEQ ID NO:2) coding for the wild type human RORγt ligand binding domain (RORγt LBD) were cloned into the pHIS 1 vector, a modified pET E. coli expression vector (Accelagen, San Diego), containing an in-frame N-terminal His-tag and a TurboTEV protease cleavage site (ENLYFQG, SEQ ID NO:3) upstream of the cloned insert sequence. The amino acid sequence for the RORγt construct used in the Thermofluor® assay is shown as SEQ ID NO:4.
ThermoFluor® experiments were carried out using instruments owned by Janssen Research and Development, L.L.C. through its acquisition of 3-Dimensional Pharmaceuticals, Inc. 1,8-ANS (Invitrogen) was used as a fluorescent dye. Protein and compound solutions are dispensed into black 384-well polypropylene PCR microplates (Abgene) and overlayed with silicone oil (1 μL, Fluka, type DC 200) to prevent evaporation.
Bar-coded assay plates are robotically loaded onto a thermostatically controlled PCR-type thermal block and then heated at a typical ramp-rate of 1° C./min for all experiments. Fluorescence was measured by continuous illumination with UV light (Hamamatsu LC6) supplied via fiber optic and filtered through a band-pass filter (380-400 nm; >6 OD cutoff). Fluorescence emission of the entire 384-well plate was detected by measuring light intensity using a CCD camera (Sensys, Roper Scientific) filtered to detect 500±25 nm, resulting in simultaneous and independent readings of all 384 wells. Images were collected at each temperature, and the sum of the pixel intensity in a given area of the assay plate was recorded versus temperature. Reference wells contained RORγt without compounds, and the assay conditions were as follows: • 0.065 mg/mL RORγt • 60 μM 1,8-ANS • 100 mM Hepes, pH 7.0 • 10 mM NaCl • 2.5 mM GSH • 0.002% Tween-20
Project compounds were arranged in a pre-dosed mother plate (Greiner Bio-one) wherein compounds are serially diluted in 100% DMSO by 1:2 from a high concentration of 10 mM over 12 columns within a series (column 12 is a reference well containing DMSO, no compound). The compounds were robotically dispensed directly into assay plates (1×=46 nL) using a Hummingbird capillary liquid handling instrument (Digilab). Following compound dispense, protein and dye in buffer was added to achieve the final assay volume of 3 μL, followed by 1 μL of silicone oil.
The binding affinity was estimated as described previously (Matulis, D., Kranz, J. K., Salemme, F. R., and Todd, M. J. (2005) Thermodynamic stability of carbonic anhydrase: measurements of binding affinity and stoichiometry using ThermoFluor®. Biochemistry 44, 5258-66) using the following thermodynamic parameters of protein unfolding: […]

Setting [2] is: read-out: RORγt (FL) Reporter Assay A or B, % inhibition.

human RORγt ligand binding domain (RORγt LBD), sequence (P51449 other isoform, or with tags, fused parts or gaps): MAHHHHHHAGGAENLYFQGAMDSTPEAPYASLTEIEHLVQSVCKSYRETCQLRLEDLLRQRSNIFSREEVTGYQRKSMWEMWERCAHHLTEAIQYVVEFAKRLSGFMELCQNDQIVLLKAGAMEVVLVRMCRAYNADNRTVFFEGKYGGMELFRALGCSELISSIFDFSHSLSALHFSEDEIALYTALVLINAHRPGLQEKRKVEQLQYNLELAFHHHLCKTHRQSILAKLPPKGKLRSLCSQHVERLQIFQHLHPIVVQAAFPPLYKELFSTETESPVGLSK
full-length human RORγt, sequence (P51449 other isoform, or with tags, fused parts or gaps): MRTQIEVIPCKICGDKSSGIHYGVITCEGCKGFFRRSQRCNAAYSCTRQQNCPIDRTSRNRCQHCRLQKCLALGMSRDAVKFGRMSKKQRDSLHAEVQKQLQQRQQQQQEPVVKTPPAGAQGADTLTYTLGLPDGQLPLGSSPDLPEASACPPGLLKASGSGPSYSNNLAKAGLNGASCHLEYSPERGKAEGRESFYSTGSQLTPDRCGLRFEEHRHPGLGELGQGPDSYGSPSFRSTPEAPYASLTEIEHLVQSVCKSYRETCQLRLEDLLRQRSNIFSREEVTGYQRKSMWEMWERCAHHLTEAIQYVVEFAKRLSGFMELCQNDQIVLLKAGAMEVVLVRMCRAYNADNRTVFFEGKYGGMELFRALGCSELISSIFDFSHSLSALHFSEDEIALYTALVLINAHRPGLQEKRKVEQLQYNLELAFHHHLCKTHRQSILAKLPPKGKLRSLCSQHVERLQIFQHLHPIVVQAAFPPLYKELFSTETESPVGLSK

For `CCc1nc(C(=O)NC[C@H]2CC[C@H](S(C)(=O)=O)CC2)c(Cl)n1-c1ccc(CC(C)(C)C(F)(F)F)cc1F` [Example 101, 5-Chloro-2-ethyl-1-(2-fluoro-4-(3,3,3-trifluoro-2,2-dimethylpropyl)phenyl)-N-(((1r,4r)-4-(methylsulfonyl)cyclohexyl)methyl)-1H-imidazole-4-carboxamide], the inhibition (as a rule, the drop in the measured response relative to a control, in per cent) at 0.22 µM at full-length human RORγt (0.22 μM compound concentration (******), read-out: RORγt (FL) Reporter Assay A or B, % inhibition) was 65%. In addition, the IC50 (commonly the concentration at which inhibition is half-maximal) on full-length human RORγt was found to be 18 nM. For the same compound, in experiment [1], the Kd (in general, the free concentration of one partner at which half of the binding sites on the other are occupied at equilibrium, for simple one-to-one binding) was determined as 4 nM.
`CCc1nc(C(=O)NC[C@H]2CC[C@H](S(C)(=O)=O)CC2)c(F)n1-c1ccc(CC(C)C(F)(F)F)cc1OC` (stereo partly drawn) [Example 15, 2-Ethyl-5-fluoro-1-(2-methoxy-4-(3,3,3-trifluoro-2-methylpropyl)phenyl)-N-(((1r,4r)-4-(methylsulfonyl)cyclohexyl)methyl)-1H-imidazole-4-carboxamide]: at full-length human RORγt, the IC50 was 55 nM and the inhibition at 6 µM worked out at 103%. Further, the Kd in experiment [1] was 3.9 nM.
As for `[2H]C([2H])([2H])Oc1cc(CC(C)(C)C(F)(F)F)ccc1-n1c(CC)nc(C(=O)NC[C@]2(C#N)CC[C@@H](S(C)(=O)=O)CC2)c1F` [Example 31, N-(((1s*,4s*)-1-Cyano-4-(methylsulfonyl)cyclohexyl)methyl)-2-ethyl-5-fluoro-1-(2-(methoxy-d3)-4-(3,3,3-trifluoro-2,2-dimethylpropyl)phenyl)-1H-imidazole-4-carboxamide], the inhibition at 2 µM on full-length human RORγt (setting [2]) was 101%. Moreover, the 50% inhibitory concentration (IC50) on full-length human RORγt is 78 nM. This compound yielded a Kd in experiment [1] of 14 nM.
Consider `CCc1nc(C(=O)NC[C@]2(O)CC[C@@H](S(C)(=O)=O)CC2)c(C#N)n1-c1ccc(CCC(F)(F)F)cc1OC(F)(F)F` [Example 114, 5-Cyano-2-ethyl-N-(((1s,4s)-1-hydroxy-4-(methylsulfonyl)cyclohexyl)methyl)-1-(2-(trifluoromethoxy)-4-(3,3,3-trifluoropropyl)phenyl)-1H-imidazole-4-carboxamide], for which, at full-length human RORγt, the IC50 was found to be 660 nM and the inhibition at 6 µM was 66%. The Kd in experiment [1] worked out at 110 nM.
On to `C#Cc1c(C(=O)NC[C@]2(O)CC[C@@H](S(C)(=O)=O)CC2)nc(CC)n1-c1ccc(CC(C)(C)C(F)(F)F)cc1OC(F)F` [Example 40, 1-(2-(Difluoromethoxy)-4-(3,3,3-trifluoro-2,2-dimethylpropyl)phenyl)-2-ethyl-5-ethynyl-N-(((1s,4s)-1-hydroxy-4-(methylsulfonyl)cyclohexyl)methyl)-1H-imidazole-4-carboxamide], for which the inhibition at 2 µM on full-length human RORγt (setting [2]) stood at 105%. The IC50 at full-length human RORγt is 3.2 nM. In experiment [1], binding was characterised by a dissociation constant (Kd) of 0.73 nM.
Regarding `CCc1nc(C(=O)NC[C@]2(O)CC[C@@H](S(C)(=O)=O)CC2)c(C#N)n1-c1ccc(CC(C)(C)C(F)(F)F)cc1OC(F)F` [Example 24, 5-Cyano-1-(2-(difluoromethoxy)-4-(3,3,3-trifluoro-2,2-dimethylpropyl)phenyl)-2-ethyl-N-(((1s,4s)-1-hydroxy-4-(methylsulfonyl)cyclohexyl)methyl)-1H-imidazole-4-carboxamide], at full-length human RORγt, the IC50 turned out to be 33 nM and the inhibition at 6 µM came to 104%. For the same compound, the affinity in experiment [1], expressed as Kd, was 5.3 nM.
As for `CCc1nc(C(=O)NC[C@]2(O)CC[C@@H](S(C)(=O)=O)CC2)c(C)n1-c1ccc(CC(C)(C)C(F)(F)F)c(OC)c1` [Example 45, 2-Ethyl-N-(((1s,4s)-1-hydroxy-4-(methylsulfonyl)cyclohexyl)methyl)-1-(3-methoxy-4-(3,3,3-trifluoro-2,2-dimethylpropyl)phenyl)-5-methyl-1H-imidazole-4-carboxamide], the inhibition at 0.67 µM on full-length human RORγt (0.67 μM compound concentration (****), read-out: RORγt (FL) Reporter Assay A or B, % inhibition) worked out at 77%. The IC50 on full-length human RORγt amounted to 11 nM. Besides, the affinity in experiment [1], expressed as Kd, was 7.7 nM.
For `CCc1nc(C(=O)NC[C@H]2CC[C@H](S(C)(=O)=O)CC2)cn1-c1ccc(C[C@H](C)C(F)(F)F)cc1OC` (single isomer, unassigned) [Example 20, 2-Ethyl-1-(2-methoxy-4-((S*)-3,3,3-trifluoro-2-methylpropyl)phenyl)-N-(((1r,4S)-4-(methylsulfonyl)cyclohexyl)methyl)-1H-imidazole-4-carboxamide], the inhibition at 2 µM at full-length human RORγt (setting [2]) came out at 94%. For the same compound, the IC50 on full-length human RORγt is 170 nM. This compound registered a Kd in experiment [1] of 21 nM.
Turning to `Cc1nc(C(=O)NC[C@@H]2CC[C@@H](S(C)(=O)=O)C[C@H]2O)c(C#N)n1-c1ccc(CC(C)(C)C(F)(F)F)cc1OC(F)F` (racemic) [Example 55, 5-Cyano-1-(2-(difluoromethoxy)-4-(3,3,3-trifluoro-2,2-dimethylpropyl)phenyl)-N-(((1RS,2SR,4SR)-2-hydroxy-4-(methylsulfonyl)cyclohexyl)methyl)-2-methyl-1H-imidazole-4-carboxamide], the inhibition at 3 µM at full-length human RORγt (3 μM compound concentration (*), read-out: RORγt (FL) Reporter Assay A or B, % inhibition) was determined as 93%. The IC50 at full-length human RORγt was determined as 66 nM. In addition, the Kd in experiment [1] is 20 nM.
